Measurements published in patent US20110306563A1, “MACROLACTONE DERIVATIVES, METHOD FOR THE PRODUCTION THEREOF AND USE THEREOF FOR THE TREATMENT OF CANCER” (SANOFI, priority 2008, published 2011).
pIC50: −log10 of the molar value. Read-outs that look alike come from different tables or passages of the source.

Columns and labels:
Assay type in all cases: cell-based
MDA-A1 = test: 14C-Thymidine incorporation assay, MDA-A1; details: MDA-A1, Breast; 72 h + 24 h 14C-Thymidine
Experimental: (§1) Experimental conditions for 14C-Thymidine incorporation assays: • 1) Cells were seeded in 96 well Cytostar microplates in 180 μl of culture medium (DMEM supplemented with 10% Fetal Calf Serum). • Seeding density are 2500 cells/well for HCT116, 5000 cells/well for HT29 and PC3 and 10000 cells/well for MDA-MB231, MDA-A1, H460 and B16F10. • 2) The microplates were incubated 4 h at 37° C. with 5% CO2 • 3) 10 μl of test compound were added • 4) The microplates were incubated 72 h at 37° C. with 5% CO2 • 5) 10 μl of 14C-Thymidine at 10 μCi/ml was added • 6) The microplates were incubated 24 h at 37° C. with 5% CO2 • 7) The radioactivity incorporated in the cells was measured with a Microbeta Trilux radioactivity scintillation counter (Wallac).

HCT116 = test: 14C-Thymidine incorporation assay, HCT116; details: Homo sapiens, HCT-116; for pIC50: HCT116, Colon, 72 h + 24 h 14C-Thymidine, read-out: IC50; for IC50: HCT116 (colon), average, read-out: Average IC50 (nM) against HCT116 (colon)
Experimental: as §1

MDA-MB231 = test: 14C-Thymidine incorporation assay, MDA-MB231; details: Homo sapiens, MDA-MB-231; MDA-MB231, Breast; 72 h + 24 h 14C-Thymidine
Experimental: as §1

HL60 = test: ATP viability assay (CellTiterGlo), HL60; details: Homo sapiens, HL-60; HL60, Leukemia; 96 h incubation
Experimental: (§2) Experimental conditions for ATP viability assays: • 1) Cells were seeded in 96 well microplates in 135 μl of culture medium. • Culture medium used were RPMI supplemented with 10% Fetal Calf Serum for HL60 and CEM cell lines and DMEM with 10% FCS for Normal Human Dermal Fibroblasts (NHDF). Seeding density was 25000 cells/well for HL60 and CEM and 7500 cells/well for NHDF. • 2) The microplates were incubated 4 h at 37° C. with 5% CO2. • 3) 15 μl of test compound were added • 4) The microplates were incubated 96 h. • 5) 100 μl of a mix of lysing reagent and luciferase/luciferin was added (CellTiterGlo, Promega). The luminescence emitted was measured with a Microbeta Trilux counter (Wallac).

HT29 = test: 14C-Thymidine incorporation assay, HT29; details: Homo sapiens, HT-29; HT29, Colon; 72 h + 24 h 14C-Thymidine
Experimental: as §1

[1] = tested on: Normal Human Dermal Fibroblasts (NHDF); test: ATP viability assay (CellTiterGlo), NHDF; details: 96 h incubation
Experimental: as §2

PC3 = test: 14C-Thymidine incorporation assay, PC3; details: Homo sapiens, PC-3; PC3, Prostate; 72 h + 24 h 14C-Thymidine
Experimental: as §1

B16F10 = test: 14C-Thymidine incorporation assay, B16F10; details: Mus musculus, B16-F10; B16F10, Melanoma; 72 h + 24 h 14C-Thymidine
Experimental: as §1

CEM = test: ATP viability assay (CellTiterGlo), CEM; details: Homo sapiens, CCRF-CEM, Leukemia, 96 h incubation
Experimental: as §2

H460 = test: 14C-Thymidine incorporation assay, H460; details: Homo sapiens, NCI-H460; H460, Lung; 72 h + 24 h 14C-Thymidine
Experimental: as §1

Compound `CCC(C)C1C(=O)NC(Cc2cc(Cl)c(OC)c(Cl)c2)C(=O)NC(C(C)(C)O)C(=O)OC(c2ccccc2)C(C)/C=C/C=C(\C)C(OC)CC2OC2(C)C(=O)N1C` (stereo not drawn) [IX] has a pIC50 (MDA-A1) of 7.85 to 8.02, a pIC50 (HCT116) of 8.66 to 8.68 and a pIC50 (MDA-MB231) of 8.08 to 8.29.

`CCC(C)C1C(=O)NC(Cc2cc(Cl)c(O)c(Br)c2)C(=O)NC(C(C)(C)O)C(=O)OC(c2ccccc2)C(C)/C=C/C=C(\C)C(OC)CC2OC2(C)C(=O)N1C` (stereo not drawn) [VI] was tested, and the IC50 (HCT116) was 0.393 nM.

In the case of `CCC(C)C1C(=O)NC(Cc2ccc(O)c(Br)c2)C(=O)NC(C(C)(C)O)C(=O)OC(c2ccccc2)C(C)/C=C/C=C(\C)C(OC)CC2OC2(C)C(=O)N1C` (stereo not drawn) [VII], the IC50 (HCT116) was 0.268 nM.

`CCC(C)C1C(=O)NC(Cc2cc(Cl)c(O)c(Cl)c2)C(=O)NC(C(C)(C)O)C(=O)OC(c2ccccc2)C(C)/C=C/C=C(\C)C(OC)CC2OC2(C)C(=O)N1C` (stereo not drawn) [II] was tested, and the pIC50 (MDA-A1) was 7.68 to 8.85, the pIC50 (HL60) was 7.82 to 8.02 and the pIC50 (HT29) was 7.90 to 8.52. The pIC50 [1] was 8.02 to 8.21, the pIC50 (PC3) was 7.80 to 8.36 and the pIC50 (B16F10) was 7.60 to 8.35. It also gave a pIC50 (CEM) of 7.98 to 8.15, a pIC50 (H460) of 7.98 to 8.04 and a pIC50 (HCT116) of 8.25 to 9.22. For the same compound, the pIC50 (MDA-MB231) was 7.77 to 8.32.

Work on `CCC(C)C1C(=O)NC(Cc2ccc(O)c(Br)c2)C(=O)NC(C(C)(C)O)C(=O)OC(c2ccccc2)C(C)/C=C/C=C(\C)C(OC)C/C=C(/C)C(=O)N1C` (stereo not drawn) [VIII] yielded an IC50 (HCT116) of 2.1 nM.

`COC1CC2OC2(C)C(=O)N(C)C(C(C)C)C(=O)NC(Cc2cc(Cl)c(O)c(Cl)c2)C(=O)NC(C(C)(C)O)C(=O)OC(c2ccccc2)C(C)/C=C/C=C/1C` (stereo not drawn) [V] was tested, and the IC50 (HCT116) was 0.673 nM.

`CCC(C)C1C(=O)NC(Cc2ccc(O)c(Cl)c2)C(=O)NC(C(C)(C)O)C(=O)OC(c2ccccc2)C(C)/C=C/C=C(\C)C(OC)CC2OC2(C)C(=O)N1C` (stereo not drawn) [III] showed an IC50 (HCT116) of 0.326 nM.
